Data taken from BindingDB's records for doi:10.1073/pnas.0708281105 (Gsk, 2008).

Tests used:
Experiment in all cases: Receptor Tyrosine Kinase Inhibition Assay
Settings in all cases: pH 7.5; 23 °C
[1] = molecular target: Epidermal growth factor receptor (Homo sapiens, UniProt P00533)
Description: (§1) Assays were performed in 96-well microtiter plates in reaction buffer containing biotinylated substrate, ATP/[gamma-33P]ATP, and purified kinase in the presence of test compounds. Reactions were terminated and transferred to MAPH phosphocellulose filter plates. The scintillation mixture was added to each well, and the assay was quantified by counting in a Packard Topcount (Packard Instrument Co.).

[2] = molecular target: Receptor tyrosine-protein kinase erbB-2 (Homo sapiens, UniProt P04626)
Description: as §1

[3] = molecular target: Receptor tyrosine-protein kinase erbB-4 (Homo sapiens, UniProt Q15303)
Description: as §1

Chain of Receptor tyrosine-protein kinase erbB-2 (P04626 whole entry): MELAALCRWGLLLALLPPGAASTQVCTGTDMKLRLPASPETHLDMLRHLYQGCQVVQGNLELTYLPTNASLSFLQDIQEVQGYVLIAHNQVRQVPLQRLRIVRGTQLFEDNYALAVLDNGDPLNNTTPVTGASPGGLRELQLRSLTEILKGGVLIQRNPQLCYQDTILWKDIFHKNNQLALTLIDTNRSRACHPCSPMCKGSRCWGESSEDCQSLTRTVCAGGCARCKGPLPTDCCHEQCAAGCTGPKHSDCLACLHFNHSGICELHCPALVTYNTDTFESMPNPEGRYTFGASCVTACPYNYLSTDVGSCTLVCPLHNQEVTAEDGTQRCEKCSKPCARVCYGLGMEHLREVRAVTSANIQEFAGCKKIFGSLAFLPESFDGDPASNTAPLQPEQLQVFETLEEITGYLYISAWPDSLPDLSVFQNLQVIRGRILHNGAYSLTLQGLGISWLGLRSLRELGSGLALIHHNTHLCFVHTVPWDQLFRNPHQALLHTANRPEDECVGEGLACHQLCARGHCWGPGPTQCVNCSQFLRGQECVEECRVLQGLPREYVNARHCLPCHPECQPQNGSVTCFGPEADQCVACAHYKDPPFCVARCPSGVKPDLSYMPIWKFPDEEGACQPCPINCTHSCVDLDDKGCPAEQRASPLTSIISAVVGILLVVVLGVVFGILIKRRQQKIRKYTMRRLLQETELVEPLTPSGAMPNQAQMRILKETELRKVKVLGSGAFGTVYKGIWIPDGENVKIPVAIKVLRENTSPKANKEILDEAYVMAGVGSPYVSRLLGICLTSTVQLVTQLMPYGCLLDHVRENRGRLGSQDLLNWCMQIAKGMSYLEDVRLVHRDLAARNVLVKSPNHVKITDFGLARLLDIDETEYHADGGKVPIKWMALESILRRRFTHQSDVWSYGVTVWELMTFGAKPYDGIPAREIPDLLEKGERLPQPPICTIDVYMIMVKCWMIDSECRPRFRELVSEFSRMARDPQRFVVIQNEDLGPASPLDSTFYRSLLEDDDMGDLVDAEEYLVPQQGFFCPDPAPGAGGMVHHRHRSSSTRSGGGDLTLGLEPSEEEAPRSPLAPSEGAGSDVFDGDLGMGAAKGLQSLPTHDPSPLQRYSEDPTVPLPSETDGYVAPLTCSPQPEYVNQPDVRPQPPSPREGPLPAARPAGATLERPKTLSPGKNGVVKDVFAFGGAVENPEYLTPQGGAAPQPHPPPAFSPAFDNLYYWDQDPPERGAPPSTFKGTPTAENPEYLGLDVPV
Chain of Epidermal growth factor receptor (P00533 whole entry): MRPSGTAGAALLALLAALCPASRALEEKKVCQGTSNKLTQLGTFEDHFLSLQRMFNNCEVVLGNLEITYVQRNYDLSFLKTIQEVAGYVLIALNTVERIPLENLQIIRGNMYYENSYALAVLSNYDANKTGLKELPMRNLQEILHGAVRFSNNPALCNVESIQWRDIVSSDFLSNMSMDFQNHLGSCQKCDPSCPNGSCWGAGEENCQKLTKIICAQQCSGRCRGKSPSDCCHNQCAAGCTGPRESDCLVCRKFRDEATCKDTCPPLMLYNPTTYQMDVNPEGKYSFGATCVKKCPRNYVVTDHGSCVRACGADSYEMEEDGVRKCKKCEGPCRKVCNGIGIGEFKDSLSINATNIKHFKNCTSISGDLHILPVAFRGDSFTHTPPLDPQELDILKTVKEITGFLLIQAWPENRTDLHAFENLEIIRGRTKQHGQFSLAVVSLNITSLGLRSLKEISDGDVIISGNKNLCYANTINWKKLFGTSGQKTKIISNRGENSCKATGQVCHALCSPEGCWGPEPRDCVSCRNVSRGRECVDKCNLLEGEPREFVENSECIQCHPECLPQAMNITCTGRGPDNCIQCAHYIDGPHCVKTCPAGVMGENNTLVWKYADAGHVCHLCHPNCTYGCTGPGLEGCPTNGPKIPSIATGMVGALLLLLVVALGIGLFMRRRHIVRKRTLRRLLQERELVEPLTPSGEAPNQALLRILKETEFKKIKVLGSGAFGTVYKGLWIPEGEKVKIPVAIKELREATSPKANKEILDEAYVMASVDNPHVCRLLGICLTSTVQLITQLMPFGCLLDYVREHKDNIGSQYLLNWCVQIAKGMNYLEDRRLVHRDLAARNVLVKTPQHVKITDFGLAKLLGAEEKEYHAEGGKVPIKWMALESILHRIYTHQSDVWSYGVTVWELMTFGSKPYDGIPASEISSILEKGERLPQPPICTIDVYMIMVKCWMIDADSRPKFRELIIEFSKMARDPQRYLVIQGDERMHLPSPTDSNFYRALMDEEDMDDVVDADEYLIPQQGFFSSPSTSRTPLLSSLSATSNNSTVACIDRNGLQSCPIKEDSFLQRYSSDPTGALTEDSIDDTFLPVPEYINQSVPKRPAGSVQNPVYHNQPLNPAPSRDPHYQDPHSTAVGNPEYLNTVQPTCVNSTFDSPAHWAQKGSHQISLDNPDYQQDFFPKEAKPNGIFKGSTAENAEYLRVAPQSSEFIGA
Chain of Receptor tyrosine-protein kinase erbB-4 (Q15303 whole entry): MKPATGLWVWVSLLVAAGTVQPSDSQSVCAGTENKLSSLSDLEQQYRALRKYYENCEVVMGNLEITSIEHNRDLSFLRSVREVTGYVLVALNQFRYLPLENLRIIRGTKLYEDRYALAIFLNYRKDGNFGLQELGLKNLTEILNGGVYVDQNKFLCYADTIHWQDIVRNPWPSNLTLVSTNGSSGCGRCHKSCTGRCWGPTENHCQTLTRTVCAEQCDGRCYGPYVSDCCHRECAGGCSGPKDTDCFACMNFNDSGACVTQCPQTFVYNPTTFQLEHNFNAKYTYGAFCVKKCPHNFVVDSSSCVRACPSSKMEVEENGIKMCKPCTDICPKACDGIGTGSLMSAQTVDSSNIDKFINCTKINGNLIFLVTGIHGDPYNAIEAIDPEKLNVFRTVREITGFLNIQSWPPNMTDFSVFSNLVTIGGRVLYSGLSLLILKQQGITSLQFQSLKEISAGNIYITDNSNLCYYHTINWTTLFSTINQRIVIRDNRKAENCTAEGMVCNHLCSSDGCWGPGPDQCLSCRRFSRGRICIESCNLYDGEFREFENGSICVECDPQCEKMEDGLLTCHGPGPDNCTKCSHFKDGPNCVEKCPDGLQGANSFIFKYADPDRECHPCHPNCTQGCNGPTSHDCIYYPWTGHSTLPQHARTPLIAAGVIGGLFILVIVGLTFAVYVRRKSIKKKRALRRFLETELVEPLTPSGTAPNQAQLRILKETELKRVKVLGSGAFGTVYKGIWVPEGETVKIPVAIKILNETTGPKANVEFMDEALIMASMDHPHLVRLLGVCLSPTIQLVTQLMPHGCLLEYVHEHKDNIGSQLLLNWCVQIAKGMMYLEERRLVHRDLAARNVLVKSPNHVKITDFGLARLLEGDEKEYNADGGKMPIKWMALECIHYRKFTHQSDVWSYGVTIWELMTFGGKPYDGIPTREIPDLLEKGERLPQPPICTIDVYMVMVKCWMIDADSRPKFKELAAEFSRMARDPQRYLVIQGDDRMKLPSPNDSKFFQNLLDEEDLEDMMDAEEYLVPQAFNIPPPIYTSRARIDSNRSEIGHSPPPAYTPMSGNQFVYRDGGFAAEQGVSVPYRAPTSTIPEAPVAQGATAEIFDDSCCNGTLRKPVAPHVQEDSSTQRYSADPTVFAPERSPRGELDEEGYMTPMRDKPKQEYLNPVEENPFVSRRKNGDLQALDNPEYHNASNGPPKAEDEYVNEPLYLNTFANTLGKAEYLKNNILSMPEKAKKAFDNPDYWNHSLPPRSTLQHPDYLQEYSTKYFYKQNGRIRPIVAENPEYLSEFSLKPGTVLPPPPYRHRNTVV

Row | Structure (SMILES) | IC50 [1] [nM] | IC50 [2] [nM] | IC50 [3] [nM]
1 | Nc1cnc(C#Cc2cc3c(Nc4ccc(OCc5cccc(F)c5)c(Cl)c4)ncnc3s2)cn1 [5-{2-[4-({3-chloro-4-[(3-fluorophenyl)methoxy]phenyl}amino)thieno[2,3-d]pyrimidin-6-yl]ethynyl}pyrazin-2-amine] | 372 | 52 | 1350
2 | C[C@H](N)C#Cc1cc2c(Nc3ccc(OCc4cccc(F)c4)c(Cl)c3)ncnc2s1 [6-[(3S)-3-aminobut-1-yn-1-yl]-N-{3-chloro-4-[(3-fluorophenyl)methoxy]phenyl}thieno[2,3-d]pyrimidin-4-amine] | 69 | 44 | 638
3 | C[C@H](N)C#Cc1cc2ncnc(Nc3ccc(OCc4cccc(F)c4)c(Cl)c3)c2s1 [6-[(3S)-3-aminobut-1-yn-1-yl]-N-{3-chloro-4-[(3-fluorophenyl)methoxy]phenyl}thieno[3,2-d]pyrimidin-4-amine] | 64 | 27 | 412
4 | C#Cc1cc2c(Nc3ccc(OCc4cccc(F)c4)c(Cl)c3)ncnc2s1 [N-{3-chloro-4-[(3-fluorophenyl)methoxy]phenyl}-6-ethynylthieno[2,3-d]pyrimidin-4-amine] | 71 | 19 | 1720
5 | Fc1cccc(COc2ccc(Nc3ncnc4sc(C#C[C@H]5CCCN5)cc34)cc2Cl)c1 [N-{3-chloro-4-[(3-fluorophenyl)methoxy]phenyl}-6-{2-[(2R)-pyrrolidin-2-yl]ethynyl}thieno[2,3-d]pyrimidin-4-amine] | 109 | 54 | 2300

These reach a lower IC50 [1]. Values come first.

Row | IC50 [1] [nM] | IC50 [2] [nM] | IC50 [3] [nM] | Structure (SMILES)
6 | 47 | 10 | 254 | Nc1cnc(C#Cc2cc3ncnc(Nc4ccc(OCc5cccc(F)c5)c(Cl)c4)c3s2)cn1 [5-{2-[4-({3-chloro-4-[(3-fluorophenyl)methoxy]phenyl}amino)thieno[3,2-d]pyrimidin-6-yl]ethynyl}pyrazin-2-amine]
7 | 24 | 12 |  | C#Cc1cc2ncnc(Nc3ccc(OCc4cccc(F)c4)c(Cl)c3)c2s1 [N-{3-chloro-4-[(3-fluorophenyl)methoxy]phenyl}-6-ethynylthieno[3,2-d]pyrimidin-4-amine]
8 | 7 | 13 | 66 | Fc1cccc(COc2ccc(Nc3ncnc4cc(C#C[C@H]5CCCN5)sc34)cc2Cl)c1 [N-{3-chloro-4-[(3-fluorophenyl)methoxy]phenyl}-6-{2-[(2R)-pyrrolidin-2-yl]ethynyl}thieno[3,2-d]pyrimidin-4-amine]
